From ChEMBL document CHEMBL1144647, “Additional interaction of allophenylnorstatine-containing tripeptidomimetics with malarial aspartic protease plasmepsin II” (Bioorg Med Chem Lett, 2007) come the findings set out here.

For assay [1], the system named is Human immunodeficiency virus 1. Put plainly: Inhibition of HIV1 protease at 50 nM.
The target in another assay is Plasmepsin II (Plasmodium falciparum, UniProt P46925). Put plainly: Inhibition of Plasmodium falciparum plasmepsin-2.
For the next assay, the system named is Plasmodium falciparum. Nature of the assay: Antimicrobial activity against Plasmodium falciparum in erythrocytes. Format: functional, organism-based.
The nature of assay [2]: Selectivity for Plasmodium falciparum plasmepsin-2 over human cathepsin D.

Plasmepsin II, sequence (P46925 whole entry): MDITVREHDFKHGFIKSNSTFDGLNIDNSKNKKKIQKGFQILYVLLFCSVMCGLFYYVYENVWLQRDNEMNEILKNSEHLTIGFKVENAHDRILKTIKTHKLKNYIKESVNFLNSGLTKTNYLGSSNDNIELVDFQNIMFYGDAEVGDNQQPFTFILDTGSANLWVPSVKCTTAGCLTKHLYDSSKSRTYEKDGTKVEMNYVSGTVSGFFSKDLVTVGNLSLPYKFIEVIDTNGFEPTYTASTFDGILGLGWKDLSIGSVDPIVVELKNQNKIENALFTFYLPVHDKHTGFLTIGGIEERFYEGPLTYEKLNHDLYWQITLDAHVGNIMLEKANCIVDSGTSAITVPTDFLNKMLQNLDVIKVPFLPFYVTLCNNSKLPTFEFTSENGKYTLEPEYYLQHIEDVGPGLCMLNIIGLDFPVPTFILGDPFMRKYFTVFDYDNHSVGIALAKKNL

As a reminder, the inhibition is the relative decrease from the control value, in per cent. The term Ki denotes a measure of affinity in units of concentration, obtained from inhibition or displacement. A lower Ki goes with a stronger hold on the target. In assay [1], `CSC[C@H](NC(=O)Cc1cccc(C)c1)C(=O)N[C@@H](Cc1ccccc1)[C@H](O)C(=O)N1CSC(C)(C)[C@H]1C(=O)N[C@H]1c2ccccc2C[C@H]1O` returned an inhibition of 87%. Also, the affinity at Plasmepsin II corresponds to a Ki of 18 nM.
`CSC[C@H](NC(=O)c1cc(=O)c2ccccc2o1)C(=O)N[C@@H](Cc1ccccc1)[C@H](O)C(=O)N1CSC(C)(C)[C@H]1C(=O)N[C@H]1c2ccccc2C[C@H]1O` registered an inhibition in assay [1] of 99%. Moreover, the Ki on Plasmepsin II was 9 nM.
`COc1ccc(CC(=O)N[C@@H](CSC)C(=O)N[C@@H](Cc2ccccc2)[C@H](O)C(=O)N2CSC(C)(C)[C@H]2C(=O)N[C@H]2c3ccccc3C[C@H]2O)cc1`: in assay [1], the inhibition worked out at 91%. This molecule had a Ki on Plasmepsin II of 4 nM.
Molecule `CSC[C@H](NC(=O)Cc1ccccc1)C(=O)N[C@@H](Cc1ccccc1)[C@H](O)C(=O)N1CSC(C)(C)[C@H]1C(=O)N[C@H]1c2ccccc2C[C@H]1O` returned an inhibition in assay [1] of 85%. On Plasmepsin II, this molecule returned a Ki not above 0.1 nM.
In the case of `COc1cccc(CC(=O)N[C@@H](CSC)C(=O)N[C@@H](Cc2ccccc2)[C@H](O)C(=O)N2CSC(C)(C)[C@H]2C(=O)N[C@H]2c3ccccc3C[C@H]2O)c1`, the inhibition in assay [1] was 88%. On Plasmepsin II, this molecule registered a Ki of 17 nM.
In general, EC50 refers to the midpoint of the concentration-response curve. The low end stands for a more potent agent, the high end for a less potent agent. For `CSC[C@H](NC(=O)Cc1ccccc1C)C(=O)N[C@@H](Cc1ccccc1)[C@H](O)C(=O)N1CSC(C)(C)[C@H]1C(=O)N[C@H]1c2ccccc2C[C@H]1O`, the response with Plasmodium falciparum was half-maximal at 4700 nM (EC50). The molecule also returned an inhibition in assay [1] of 83%. Moreover, the affinity at Plasmepsin II corresponds to a Ki of 0.2 nM.
`CSC[C@H](NC(=O)COc1cccc(Nc2ccccc2)c1)C(=O)N[C@@H](Cc1ccccc1)[C@H](O)C(=O)N1CSC(C)(C)[C@H]1C(=O)N[C@H]1c2ccccc2C[C@H]1O` yielded an inhibition in assay [1] of 98%. Besides, at Plasmepsin II, the inhibition constant (Ki) stood at 15 nM.
Turning to `CSC[C@H](NC(=O)COc1cccc2cnccc12)C(=O)N[C@@H](Cc1ccccc1)[C@H](O)C(=O)N1CSC[C@H]1C(=O)NC(C)(C)C`, affinity on Plasmepsin II was put at a Ki of 1000 nM.
On to `CSC[C@H](NC(=O)Cc1ccccc1O)C(=O)N[C@@H](Cc1ccccc1)[C@H](O)C(=O)N1CSC(C)(C)[C@H]1C(=O)N[C@H]1c2ccccc2C[C@H]1O`, for which the inhibition in assay [1] stood at 86%. At Plasmepsin II, this molecule displayed a Ki of 16 nM.
For the molecule `CSC[C@H](NC(=O)COc1cccc2cnccc12)C(=O)N[C@@H](Cc1ccccc1)[C@H](O)C(=O)N1CSC(C)(C)[C@H]1C(=O)NC(C)(C)C`, the Ratio in assay [2] worked out at 50. Moreover, on Plasmepsin II, affinity was put at a Ki of 36 nM.
In assay [1], `CSC[C@H](NC(=O)Cc1ccc(C)cc1)C(=O)N[C@@H](Cc1ccccc1)[C@H](O)C(=O)N1CSC(C)(C)[C@H]1C(=O)N[C@H]1c2ccccc2C[C@H]1O` registered an inhibition of 88%. The molecule further gave a Ki on Plasmepsin II of 5 nM.
Molecule `CSC[C@H](NC(=O)Cc1ccc(O)cc1)C(=O)N[C@@H](Cc1ccccc1)[C@H](O)C(=O)N1CSC(C)(C)[C@H]1C(=O)N[C@H]1c2ccccc2C[C@H]1O` came in with an inhibition in assay [1] of 88%. At Plasmepsin II, the Ki is not above 0.1 nM.
Molecule `CSC[C@H](NC(=O)Cc1ccccc1N)C(=O)N[C@@H](Cc1ccccc1)[C@H](O)C(=O)N1CSC(C)(C)[C@H]1C(=O)N[C@H]1c2ccccc2C[C@H]1O` gave an inhibition in assay [1] of 86%. For the same molecule, the affinity at Plasmepsin II corresponds to a Ki of 4 nM.
In assay [1], `CSC[C@H](NC(=O)Cc1cccc(N)c1)C(=O)N[C@@H](Cc1ccccc1)[C@H](O)C(=O)N1CSC(C)(C)[C@H]1C(=O)N[C@H]1c2ccccc2C[C@H]1O` came in with an inhibition of 76%. At Plasmepsin II, this molecule registered a Ki of 12 nM.
For `CSC[C@H](NC(=O)Cc1ccc(N)cc1)C(=O)N[C@@H](Cc1ccccc1)[C@H](O)C(=O)N1CSC(C)(C)[C@H]1C(=O)N[C@H]1c2ccccc2C[C@H]1O`, in assay [1], the inhibition was 68%. The inhibitory constant (Ki) on Plasmepsin II was not above 0.1 nM.
As to `COc1ccccc1CC(=O)N[C@@H](CSC)C(=O)N[C@@H](Cc1ccccc1)[C@H](O)C(=O)N1CSC(C)(C)[C@H]1C(=O)N[C@H]1c2ccccc2C[C@H]1O`, the inhibition in assay [1] was 81%. Moreover, affinity at Plasmepsin II was put at a Ki of 9 nM.
For `CSC[C@H](NC(=O)Cc1cccc(O)c1)C(=O)N[C@@H](Cc1ccccc1)[C@H](O)C(=O)N1CSC(C)(C)[C@H]1C(=O)N[C@H]1c2ccccc2C[C@H]1O` the same measures were 84% and 4 nM.
In the case of `Cc1cccc(C)c1OCC(=O)N[C@@H](Cc1ccccc1)[C@H](O)C(=O)N1CSC(C)(C)[C@H]1C(=O)N[C@H]1c2ccccc2C[C@H]1O`, in the assay with Plasmodium falciparum, the concentration giving a half-maximal response (EC50) worked out at 6800 nM. Besides, the affinity at Plasmepsin II, expressed as Ki, was 0.5 nM.
Take `CSC[C@H](NC(=O)COc1cccc2cnccc12)C(=O)N[C@@H](Cc1ccccc1)[C@H](O)C(=O)N1CSC(C)(C)[C@H]1C(=O)N[C@H]1c2ccccc2C[C@H]1O`: a half-maximal effect with Plasmodium falciparum (EC50) was put at 3100 nM. This molecule had an inhibition in assay [1] of 99%. The molecule further registered an inhibitory constant (Ki) on Plasmepsin II of 3 nM.
In assay [1], `CSC[C@H](NC(=O)OC1CCCCC1)C(=O)N[C@@H](Cc1ccccc1)[C@H](O)C(=O)N1CSC(C)(C)[C@H]1C(=O)N[C@H]1c2ccccc2C[C@H]1O` came in with an inhibition of 56%. Moreover, at Plasmepsin II, the inhibition constant (Ki) was 5 nM.
